Results: patent publication US20220111028A1, “Combination Of A STING Agonist And A Complex Comprising A Cell Penetrating Peptide, A Cargo And A TLR Peptide Agonist” (priority 2020, published 2022)

Columns and labels:
MC38-CEA tumor = MC38-CEA tumor model: CEA-specific CD8 T cells by multimer staining; type: in vivo, C57BL/6J mice; settings: multimer staining one week after second vaccination, MC38-CEA tumor-bearing mice
Protocol: Alternatively, female C57BL/6J mice were implanted with 5×10^5 MC38-CEA tumor cells subcutaneously on the back of the mouse and vaccinated twice at the base of the tail (at day 6 and 13 post tumor implantation) by s.c. injection of 10 nmoles of vaccine, 25 μg of STINGa (ADU-S100) or a combination of the two.
Female C57BL/6J mice were implanted with 5*10^5 MC38-CEA tumor cells subcutaneously on the back of the mouse. At day 6 and day 13 post tumor implantation, mice were vaccinated with 10 nmol of ATP128, 25 μg of a STING agonist (ADU-S100) or a combination of the two. Both the ATP128 vaccine and the STING agonist were injected subcutaneously at the base of the tail. One week after the second vaccination, mouse blood was collected from the tail vein and the frequency and the total number of CEA-specific CD8 T cells was analyzed by flow cytometry using a custom designed multimer.

IFN-α = experiment: Quantification of serum interferon-α (ELISA) in tumor-free mice; type: in vivo, C57BL/6 mice; settings: 4 and 24 hours post first vaccination, s.c.
Protocol: Blood was collected from mouse tail vein and serum was isolated by centrifugation using Starstedt tubes. The concentration of IFN-α cytokine was measured using commercial ELISA kits according to the manufacturer's recommendations (PBL Assay Science).
In order to evaluate the immunogenicity of the combination, tumor-free C57BL/6 mice were vaccinated twice at 2 weeks interval (at day 0 and 14) by s.c. injection of 10 nmoles of Z13Mad25Anaxa (an exemplified a complex comprising a cell penetrating peptide, at least one antigen or antigenic epitope, and a TLR peptide agonist, which contains human papilloma virus (HPV)-derived CD4 and CD8 epitopes. At about the same time of vaccination, mice received 25 μg of STING agonist ADU-S100 administered via 2×50 μl s.c. injections in each side of the low back. Serum was collected 4 and 24 hours after the first vaccination and IFN-α concentration was measured by ELISA. Whole blood was collected at day 21 and used for antigen-specific CD8 T cells measurement by multimer flow cytometry staining. At the same time, spleens were harvested and splenocytes used for ex vivo stimulation and intracellular cytokine production was analyzed by flow cytometry. Alternatively, splenocytes were used for TCR avidity assay.

[1] = tested on: HPV-E7-specific CD8 T cells, splenic CD8 and CD4 T cells; experiment: Immunogenicity in tumor-free mice: multimer staining and flow cytometry of blood and splenocytes; type: in vivo, C57BL/6 mice
Protocol: (§1) Peripheral blood and spleen mononuclear cell suspensions from mice were isolated using Ficoll-Paque gradient (GE Healthcare) before flow cytometry analysis, ex vivo stimulation or TCR avidity assay.
TILs, LILs or splenocytes were numerated and 1×10^5 or 2×10^6 cells were plated per condition, respectively. Cells were incubated with HPV-CD4, HPV-CD8, OVA-CD8 or OVA-CD4 epitope peptide, with PMA/ionomycin as a positive control or without any stimulant as a negative control, in presence of Golgi stop (BD biosciences) and anti-CD107a for 6 hours. […]
The following antibodies were used: CD45 (30-F11), CD11b (M1/70), KLRG1 (2F1), CD103 (M290), NKg2a (20d5), Ly6C (AL-21), Ly6G (1A8), PD-L1 (MIH5), I-A/I-E (M5/114), CD11c (HL3), PDCA1 (927), CD64 (X54-5/7.1), B220 (RA3-6B2), CD24 (M1/69), CD4 (GK1.5), CD25 (3C7), CD3 (500A2), NKp46 (29A1.4), TNF-α (MP6-XT22), IFN-γ (XMG1.2), H2-Kb (AF6-88.5) and H2-db (28-14-8) were from BD Biosciences; Tim3 (RMT3-23), PD-1 (29F.1A12), CD38 (90), Gr-1 (RB6-8C5), CD206 (C068C2), CD68 (FA-11) were from BioLegend; Ki67 (solA15), FoxP3 (FJK-16s), T-bet (4B10), GATA-3 (TWAJ) and RORγt (AFKJS-9) were from ThermoFisher Scientific; Granzyme B (REA226) was from Miltenyi; CD8 (KT15) was from MBL. […] Cells were analyzed using an Attune NxT flow cytometer (ThermoFisher Scientific) Kaluza (Beckman Coulter) software. […]

TC-1 tumor [2] = experiment: TC-1 tumor model: antigen-specific CD8 T cell responses; type: in vivo, C57BL/6 mice
Protocol: (§2) C57BL/6 mice were implanted s.c. with 1×10^5 TC-1 tumor cells in the back and mice were stratified according to tumor size on day 6 tumor implantation. Alternatively, C57BL/6J mice were injected i.v. with 1×10^5 B16-OVA cells. Mice were vaccinated two times (at day 6 and 13 post tumor implantation) by s.c. injection of 10 nmoles of vaccine at the tail base. At the same time of vaccination, mice received 25 μg of STING agonist administered via 2×50 μl s.c. injections in each side of the low back. Alternatively, at the same time of vaccination, mice received 10 μg of STING agonist 2 administered via 2×100 μl s.c. injections in each side of the low back.
(§3) TC-1 tumors were harvested at day 20 post implantation and tumor-infiltrating leucocytes (TIL) were purified using Miltenyi tumor dissociation kit following manufacturer instruction. Briefly, tumor tissues were cut into small pieces, and resuspended in DMEM medium containing tumor dissociating enzymes (Miltenyi). Tumors were digested on a Gentle MACS with heating system (Miltenyi) using solid tumor program. Enzymatic digestion was stopped by adding cold PBS 0.5% BSA solution and keeping cells on ice. Digested tumors were passed through a 70 μm to eliminate remaining undigested tissue. CD45+ cells were purified using CD45 TIL microbeads (Miltenyi) following manufacturer protocol. Purified CD45+ cells were used for flow cytometry staining or ex vivo T cells stimulation.
as §1
TILs, LILs or splenocytes were numerated and 1×10^5 or 2×10^6 cells were plated per condition, respectively. […]
The following antibodies were used: CD45 (30-F11), CD11b (M1/70), KLRG1 (2F1), CD103 (M290), NKg2a (20d5), Ly6C (AL-21), Ly6G (1A8), PD-L1 (MIH5), I-A/I-E (M5/114), CD11c (HL3), PDCA1 (927), CD64 (X54-5/7.1), B220 (RA3-6B2), CD24 (M1/69), CD4 (GK1.5), CD25 (3C7), CD3 (500A2), NKp46 (29A1.4), TNF-α (MP6-XT22), IFN-γ (XMG1.2), H2-Kb (AF6-88.5) and H2-db (28-14-8) were from BD Biosciences; Tim3 (RMT3-23), PD-1 (29F.1A12), CD38 (90), Gr-1 (RB6-8C5), CD206 (C068C2), CD68 (FA-11) were from BioLegend; Ki67 (solA15), FoxP3 (FJK-16s), T-bet (4B10), GATA-3 (TWAJ) and RORγt (AFKJS-9) were from ThermoFisher Scientific; Granzyme B (REA226) was from Miltenyi; CD8 (KT15) was from MBL. […] Cells were analyzed using an Attune NxT flow cytometer (ThermoFisher Scientific) Kaluza (Beckman Coulter) software.
To this end, 10^5 TC-1 tumor cells were implanted on the back of C57BL/6 mice. […] One week after the last treatment, mice were sacrificed, tumor harvested, and CD8 T cells presence and phenotype was analyzed by FACS staining.

TC-1 tumor [3] = experiment: TC-1 tumor model: intra-tumoral CD4 T cell responses; type: in vivo, C57BL/6 mice
Protocol: as §2
as §3, with “Purified CD45+ cells were used for flow cytometry staining or ex vivo T cells stimulation.” left out
In view thereof, intra-tumoral CD4 T cells were monitored next. […]

TC-1 tumor [4] = experiment: TC-1 tumor model: tumor microenvironment composition by FACS; type: in vivo, C57BL/6 mice; settings: systemic administration
Protocol: as §2
as §3, with “Purified CD45+ cells were used for flow cytometry staining or ex vivo T cells stimulation.” left out

TC-1 tumor [5] = experiment: TC-1 tumor model: intra-tumoral expression of PD-L1, MHC-I and MHC-II; type: in vivo, C57BL/6 mice
Protocol: as §2
TC-1 tumors were harvested at day 20 post implantation and tumor-infiltrating leucocytes (TIL) were purified using Miltenyi tumor dissociation kit following manufacturer instruction. Briefly, tumor tissues were cut into small pieces, and resuspended in DMEM medium containing tumor dissociating enzymes (Miltenyi). Tumors were digested on a Gentle MACS with heating system (Miltenyi) using solid tumor program. […]
Furthermore, down-regulation of MHC-I expression on tumor cells is one of the main mechanism of immune evasion. Therefore, the intra-tumoral expression of PD-L1 and MHC-I as well as MHC-II was also monitored in the TC-1 tumor model as described above.

TC-1 tumor [6] = experiment: TC-1 tumor model: tumor growth and survival (STINGa); type: in vivo, C57BL/6 mice; settings: TC-1 model, treated twice at one-week interval
Protocol: as §2
(§4) Tumor size was measured with a caliper and mice were euthanized when tumor reached a volume of 1000 mm^3. Tumor volume was calculated with the following formula:
(§5) V=length×length×width×Pi/6
10^5 TC-1 cells were implanted on the back of C57BL/6 mice. When tumors were visible, mice were treated twice at one-week interval as described above in therapeutic settings of the TC-1 tumor model with (i) the complex comprising a cell penetrating peptide, at least one antigen or antigenic epitope, and a TLR peptide agonist (Z13Mad25Anaxa); (ii) the STING agonist; or (iii) a combination of both.

B16-OVA tumor = experiment: B16-OVA pulmonary metastases tumor model; type: in vivo, C57BL/6 mice; settings: B16-OVA i.v., day 20
Protocol: as §2
B16-OVA tumor bearing mice were sacrificed at day 20, lungs were perfused with a saline solution and the number of lung metastasis was counted.
B16-OVA tumor bearing mice were perfused with a saline solution to eliminate blood from the lungs before their collection. Lung-infiltrating leucocytes (LILs) were purified using mouse tumor dissociation kit from Miltenyi, following manufacturer instruction. […]
Briefly, 10^5 B16-OVA cells were injected intravenously into C57BL/6 mice. […] At day 20 (10 days after the last vaccination), lungs were perfused to eliminate blood, the number of pulmonary metastasis was counted, and lung infiltrating lymphocytes (LILs) were analyzed.

TC-1 tumor [7] = experiment: TC-1 tumor model: tumor growth, survival and circulating CD8 T cells (STINGa 2); type: in vivo, C57BL/6 mice; settings: TC-1 model, complex day 6 and 13, STINGa 2 s.c. days 6, 10, 13 and 17
Protocol: as §2, §4, §5
Similarly as described above, 10^5 TC-1 cells were implanted on the back of C57BL/6 mice and assigned to distinct groups (control (no treatment); complex comprising a cell penetrating peptide, at least one antigen or antigenic epitope, and a TLR peptide agonist (Z13Mad25Anaxa); STING agonist STINGa 2; and a combination thereof). […]

Molecule: ATP128: Vaccine construct (SEQ ID NO: 54) containing CEA, survivin and ASCL2 epitopes, cell penetrating peptide and TLR peptide agonist
- CEA-specific CD8 T cell response (MC38-CEA tumor): elicits CEA-specific CD8 T cells

Molecule: Nc1ncnc2c1ncn2[C@@H]1O[C@@H]2CO[P@@](=O)([S][Na])O[C@@H]3[C@H](O)[C@@H](CO[P@@](=O)([S][Na])O[C@H]2[C@H]1O)O[C@H]3n1cnc2c(N)ncnc21 [STINGa, reference compound]
- Serum IFN-α level (systemic type I interferon response) (IFN-α): high IFN-α serum levels peaking 4 hours post injection and decreasing already 24 hours later
- Proportion of splenic CD8 T cells [1]: higher proportion of splenic CD8 T cells
- Cytokine secretion by CD8 T cells after ex vivo PMA/Ionomycin restimulation ([1]; splenocytes): increased cytokine secretion
- HPV-specific proportion of tumor-infiltrating CD8 T cells (in words) (TC-1 tumor [2]; TC-1 tumor): did not modulate
- Expression of exhaustion markers PD-1 and Tim-3 by tumor-infiltrating CD8 T cells (TC-1 tumor [2]; TC-1 tumor, flow cytometry): expressed only PD-1 or no exhaustion marker at all
- CD8 T cells tumor infiltration (TC-1 tumor [2]; TC-1 tumor, one week after last treatment): did not modulate
- Circulating HPV-specific CD8 T cells (frequency and number) (TC-1 tumor [2]; blood, one week after last treatment, TC-1 tumor-bearing mice): no effect
- Tumor infiltration by CD4 T cells (TC-1 tumor [3]): no effect on intra-tumoral CD4 T cells recruitment
- Composition of TME (TC-1 tumor [4]): does not affect the composition of TME
- Intra-tumoral immunogenicity (modulation of TME) (TC-1 tumor [5]): no effect was observed
- Tumor development / tumor growth (TC-1 tumor [6]): only a small effect on tumor growth
- Number of metastatic nodules per lung (B16-OVA tumor): no effect

Molecule: Nc1ncnc2c1ncn2[C@@H]1O[C@@H]2COP(=O)(S)O[C@@H]3[C@H](O)[C@@H](COP(=O)(S)O[C@H]2[C@H]1F)O[C@H]3n1cnc2c(=O)[nH]ncc21 (stereo partly drawn) [STINGa 2]
- Survival (TC-1 tumor [7]): only provided a slight improvement
- Tumor growth (TC-1 tumor [7]): only provided a slight improvement
